The target of one assay is human Nav1.7 (Homo sapiens (Human), UniProt Q15858). The assay is described as follows: Nav 1.7 in vitro PatchXpress (PX) assay. Type of assay: cell-based.
Sequence of human Nav1.7 (Q15858 whole entry): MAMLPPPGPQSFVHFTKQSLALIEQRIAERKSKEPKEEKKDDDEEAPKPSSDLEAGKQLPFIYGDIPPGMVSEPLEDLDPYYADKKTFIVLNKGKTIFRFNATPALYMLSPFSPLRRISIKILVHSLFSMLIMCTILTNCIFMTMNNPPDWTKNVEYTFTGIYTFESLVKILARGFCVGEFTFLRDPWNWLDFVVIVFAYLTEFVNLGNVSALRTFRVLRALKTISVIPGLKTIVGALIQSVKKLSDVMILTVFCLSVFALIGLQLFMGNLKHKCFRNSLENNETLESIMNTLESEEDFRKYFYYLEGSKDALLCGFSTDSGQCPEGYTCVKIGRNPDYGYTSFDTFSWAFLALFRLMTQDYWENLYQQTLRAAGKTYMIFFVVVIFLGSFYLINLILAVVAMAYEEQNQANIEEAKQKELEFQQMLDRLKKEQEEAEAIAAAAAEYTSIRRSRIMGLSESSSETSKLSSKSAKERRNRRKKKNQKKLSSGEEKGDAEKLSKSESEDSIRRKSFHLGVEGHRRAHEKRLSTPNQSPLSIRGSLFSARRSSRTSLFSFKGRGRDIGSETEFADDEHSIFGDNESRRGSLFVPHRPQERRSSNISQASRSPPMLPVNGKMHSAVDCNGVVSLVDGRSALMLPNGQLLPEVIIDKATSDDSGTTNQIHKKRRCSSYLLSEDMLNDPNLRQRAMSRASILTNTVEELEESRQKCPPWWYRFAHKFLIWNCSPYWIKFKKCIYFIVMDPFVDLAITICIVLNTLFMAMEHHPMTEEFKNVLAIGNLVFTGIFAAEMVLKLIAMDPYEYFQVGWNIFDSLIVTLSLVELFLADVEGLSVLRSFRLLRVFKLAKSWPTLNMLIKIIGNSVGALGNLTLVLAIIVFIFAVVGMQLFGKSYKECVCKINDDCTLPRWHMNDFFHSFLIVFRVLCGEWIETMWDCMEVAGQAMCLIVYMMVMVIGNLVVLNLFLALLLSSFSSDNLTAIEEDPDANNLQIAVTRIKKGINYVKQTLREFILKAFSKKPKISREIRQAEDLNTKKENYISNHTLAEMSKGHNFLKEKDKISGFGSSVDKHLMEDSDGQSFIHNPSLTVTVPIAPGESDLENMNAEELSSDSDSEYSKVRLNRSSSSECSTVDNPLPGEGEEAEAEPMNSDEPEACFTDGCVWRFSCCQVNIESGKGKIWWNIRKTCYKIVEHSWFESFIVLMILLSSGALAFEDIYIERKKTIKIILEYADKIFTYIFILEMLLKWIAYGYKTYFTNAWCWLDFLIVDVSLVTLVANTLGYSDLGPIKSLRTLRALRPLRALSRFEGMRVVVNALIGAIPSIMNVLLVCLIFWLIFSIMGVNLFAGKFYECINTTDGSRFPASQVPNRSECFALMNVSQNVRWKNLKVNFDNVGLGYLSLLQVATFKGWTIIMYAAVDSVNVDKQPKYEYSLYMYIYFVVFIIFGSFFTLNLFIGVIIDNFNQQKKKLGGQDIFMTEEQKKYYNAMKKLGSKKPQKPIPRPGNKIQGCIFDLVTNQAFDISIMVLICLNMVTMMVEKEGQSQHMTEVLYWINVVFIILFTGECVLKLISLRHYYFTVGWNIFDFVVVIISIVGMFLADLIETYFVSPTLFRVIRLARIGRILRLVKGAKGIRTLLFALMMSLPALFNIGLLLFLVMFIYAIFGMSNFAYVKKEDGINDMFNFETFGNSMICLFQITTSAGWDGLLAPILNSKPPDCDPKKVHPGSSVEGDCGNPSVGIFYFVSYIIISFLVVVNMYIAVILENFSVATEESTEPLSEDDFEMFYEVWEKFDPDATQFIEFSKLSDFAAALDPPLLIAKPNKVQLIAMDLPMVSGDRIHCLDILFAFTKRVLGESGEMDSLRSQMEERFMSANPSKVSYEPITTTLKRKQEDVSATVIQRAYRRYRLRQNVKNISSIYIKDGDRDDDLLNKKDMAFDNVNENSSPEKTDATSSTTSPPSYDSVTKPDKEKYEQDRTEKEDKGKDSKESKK
Conditions: not given
The term IC50 denotes the concentration that inhibits the measured activity by half. Low values mean greater potency, high ones weaker potency. With `COc1cc(C(=O)NS(C)(=O)=O)ccc1-c1cnc(Oc2c(C)cccc2Cl)c(Cl)c1` [Example 327, 4-(5-chloro-6-(2-chloro-6-methylphenoxy)-3-pyridinyl)-3-methoxy-N-(methylsulfonyl)benzamide], half-maximal inhibition (IC50) was put at 0.0823 µM.

As for `COc1cc(C(=O)NS(C)(=O)=O)ccc1-c1cnc(Oc2ccc(C)c(Cl)c2)c(Cl)c1` [Example 329, 4-(5-chloro-6-(3-chloro-4-methylphenoxy)-3-pyridinyl)-3-methoxy-N-(methylsulfonyl)benzamide], the IC50 stood at 0.0847 µM.

Compound `COc1cc(C(=O)NS(C)(=O)=O)ccc1-c1cnc(Oc2ccc(C)cc2Cl)c(Cl)c1` [Example 344, 4-(5-chloro-6-(2-chloro-4-methylphenoxy)-3-pyridinyl)-3-methoxy-N-(methylsulfonyl)benzamide] gave a half-maximal inhibitory concentration (IC50) of 0.0915 µM.

For `COc1cc(C(=O)NS(C)(=O)=O)ccc1-c1cnc(Oc2ccc(Cl)cc2)c(Cl)c1` [Example 350, 4-(5-chloro-6-(4-chlorophenoxy)-3-pyridinyl)-3-methoxy-N-(methylsulfonyl)benzamide], the IC50 was 0.0926 µM.

Consider `COc1cc(C(=O)NS(C)(=O)=O)ccc1-c1cnc(N2CCC[C@H]2C(C)C)c(Cl)c1` [Example 355, 4-(5-chloro-6-((2S)-2-(1-methylethyl)-1-pyrrolidinyl)-3-pyridinyl)-3-methoxy-N-(methylsulfonyl)benzamide], for which half-maximal inhibition (IC50) was put at 0.0877 µM.

The compound `COc1cc(C(=O)NS(C)(=O)=O)ccc1-c1cnc(Oc2ccc(F)c(F)c2F)c(Cl)c1` [Example 357, 4-(5-chloro-6-(2,3,4-trifluorophenoxy)-3-pyridinyl)-3-methoxy-N-(methylsulfonyl)benzamide] came in with a 50% inhibitory concentration (IC50) of 0.0882 µM.

For the compound `COc1cc(C(=O)NS(C)(=O)=O)ccc1-c1cnc(Oc2ccc(F)cc2C)c(Cl)c1` [Example 361, 4-(5-chloro-6-(4-fluoro-2-methylphenoxy)-3-pyridinyl)-3-methoxy-N-(methylsulfonyl)benzamide], the IC50 was found to be 0.0966 µM.

Consider `COc1cc(C(=O)NS(C)(=O)=O)ccc1-c1cnc(Oc2c(F)ccc(F)c2F)c(Cl)c1` [Example 362, 4-(5-chloro-6-(2,3,6-trifluorophenoxy)-3-pyridinyl)-3-methoxy-N-(methylsulfonyl)benzamide], for which half-maximal inhibition (IC50) required 0.0636 µM.

In the case of `COc1cc(C(=O)NS(C)(=O)=O)ccc1-c1cnc(Oc2cc(F)ccc2F)c(Cl)c1` [Example 363, 4-(5-chloro-6-(2,5-difluorophenoxy)-3-pyridinyl)-3-methoxy-N-(methylsulfonyl)benzamide], half-maximal inhibition (IC50) was put at 0.1 µM.

With `COc1cc(C(=O)NS(C)(=O)=O)ccc1-c1cnc(Oc2cc(C)c(Cl)c(C)c2)c(Cl)c1` [Example 364, 4-(5-chloro-6-(4-chloro-3,5-dimethylphenoxy)-3-pyridinyl)-3-methoxy-N-(methylsulfonyl)benzamide], the IC50 was 0.0643 µM.

`COc1ccc(Oc2ncc(-c3ccc(C(=O)NS(C)(=O)=O)cc3OC)cc2Cl)c(Cl)c1` [Example 365, 4-(5-chloro-6-(2-chloro-4-methoxyphenoxy)-3-pyridinyl)-3-methoxy-N-(methylsulfonyl)benzamide] displayed an IC50 of 0.0914 µM. This IC50 and that of the compound before are within 1.5-fold of each other.

`CCc1cc(Oc2ncc(-c3ccc(C(=O)NS(C)(=O)=O)cc3OC)cc2Cl)ccc1Cl` [Example 368, 4-(5-chloro-6-(4-chloro-3-ethylphenoxy)-3-pyridinyl)-3-methoxy-N-(methylsulfonyl)benzamide] displayed an IC50 of 0.0723 µM.

The compound `COc1ccc(Cl)c(Oc2ncc(-c3ccc(C(=O)NS(C)(=O)=O)cc3OC)cc2Cl)c1` [Example 369, 4-(5-chloro-6-(2-chloro-5-methoxyphenoxy)-3-pyridinyl)-3-methoxy-N-(methylsulfonyl)benzamide] gave an IC50 of 0.0905 µM.

For `COc1cc(C(=O)NS(C)(=O)=O)ccc1-c1cnc(Oc2ccc(Cl)c(C(F)(F)F)c2)c(Cl)c1` [Example 370, 4-(5-chloro-6-(4-chloro-3-(trifluoromethyl)phenoxy)-3-pyridinyl)-3-methoxy-N-(methylsulfonyl)benzamide], the IC50 came to 0.057 µM.

Take `COc1cc(C(=O)NS(C)(=O)=O)ccc1-c1cnc(Oc2cc(F)ccc2Cl)c(Cl)c1` [Example 371, 4-(5-chloro-6-(2-chloro-5-fluorophenoxy)-3-pyridinyl)-3-methoxy-N-(methylsulfonyl)benzamide]: it took 0.08 µM to reach half-maximal inhibition (IC50).

On to `COc1cc(C(=O)NS(C)(=O)=O)ccc1-c1cnc(Oc2cc(Cl)cc(OC(F)(F)F)c2)c(Cl)c1` [Example 372, 4-(5-chloro-6-(3-chloro-5-(trifluoromethoxy)phenoxy)-3-pyridinyl)-3-methoxy-N-(methylsulfonyl)benzamide], for which the IC50 amounted to 0.0504 µM.

For the compound `COc1cc(C(=O)NS(C)(=O)=O)ccc1-c1cnc(Oc2ccc(Cl)c(OC(F)(F)F)c2)c(Cl)c1` [Example 373, 4-(5-chloro-6-(4-chloro-3-(trifluoromethoxy)phenoxy)-3-pyridinyl)-3-methoxy-N-(methylsulfonyl)benzamide], the IC50 is 0.0662 µM.

Compound `COc1cc(C(=O)NS(C)(=O)=O)ccc1-c1cnc(Oc2cc(Cl)cc(C(F)(F)F)c2)c(Cl)c1` [Example 374, 4-(5-chloro-6-(3-chloro-5-(trifluoromethyl)phenoxy)-3-pyridinyl)-3-methoxy-N-(methylsulfonyl)benzamide] returned an IC50 of 0.0584 µM.

For `COc1cc(C(=O)NS(C)(=O)=O)ccc1-c1cnc(Oc2ccc(Cl)cc2F)c(Cl)c1` [Example 376, 4-(5-chloro-6-(4-chloro-2-fluorophenoxy)-3-pyridinyl)-3-methoxy-N-(methylsulfonyl)benzamide], the IC50 is 0.0603 µM.

In turn, `COc1cc(C(=O)NS(C)(=O)=O)ccc1-c1cnc(Oc2cc(Cl)ccc2C)c(Cl)c1` [Example 379, 4-(5-chloro-6-(5-chloro-2-methylphenoxy)-3-pyridinyl)-3-methoxy-N-(methylsulfonyl)benzamide] yielded an IC50 of 0.0546 µM.

Still in this assay, the particulars now being: in-vitro Nav 1.7 PX data.
As to “4-(3-Chloro-4′-Methoxy-2′-Methyl-[2,3′-Bipyridin]-5-yl)-2-Fluoro-5-Methyl-N-(Methyl Sulfonyl)Benzamide [Example 840]”, the midpoint of inhibition, the IC50, lay at 8.35 µM.

In turn, “4-(3-Chloro-4′-Methoxy-2′-Methyl-[2,3′-Bipyridin]-5-yl)-2-Fluoro-5-Methyl-N-(Methylsulfonyl)Benzamide [Example 839]” displayed an IC50 of 12.8 µM.

For the compound `CC(C)C1CCCN1c1ncc(-c2ccc(C(=O)NS(C)(=O)=O)cc2OC(F)F)cc1Cl` (racemic) [compound 833, 4-(5-Chloro-6-(2-Isopropylpyrrolidin-1-yl)Pyridin-3-yl)-3-(Difluoromethoxy)-N-(Methylsulfonyl)Benzamide], half-maximal inhibition (IC50) required 0.0721 µM.

The compound `COc1cc(C(=O)NS(C)(=O)=O)c(F)cc1-c1cnc(O[C@@H](C)C2CCC2)c(Cl)c1` (single isomer, unassigned) [Example 767] showed an IC50 of 0.0776 µM.

Regarding `COc1cc(C(=O)NS(C)(=O)=O)c(F)cc1-c1cnc(O[C@H](C)C2CCC2)c(Cl)c1` (single isomer, unassigned) [Example 769], the IC50 turned out to be 0.05 µM.

Consider `COc1nccc(C)c1-c1cc(C(=O)NS(C)(=O)=O)ccc1-c1cnc(OCC(C)C)c(Cl)c1` (single isomer, unassigned) [Example 821, 4-(5-Chloro-6-Isobutoxypyridin-3-yl)-3-(2-Methoxy-4-Methylpyridin-3-yl)-N-(Methylsulfonyl)Benzamide], for which inhibition was half-maximal at 32 µM (IC50).

These data come from patent US9663508B2, “Biaryl acyl-sulfonamide compounds as sodium channel inhibitors” (AMGEN INC., priority 2013, dated 2017).
